In series [1] the test system is Patched protein in MEWO and A375 cells. Briefly: Western blotting of Patched after panicein treatment. In kind it is cell-based, human. Particulars: 24 hours, 10 μM. On the procedure:
Western-blotting on total extracts from MEWO and A375 cells after 24 h treatment with 10 μM of panicein A hydroquinone (P5) or with DMSO.
Total extracts from melanoma cells were prepared. Samples were separated on 8% SDS-PAGE and transferred to nitrocellulose membranes (Amersham) using standard techniques. After 1 hour at room temperature in blocking buffer (20 mmol/L Tris-HCl pH 7.5, 450 mmol/L NaCl, 0.1% Tween-20, and 4% non-fat milk), nitrocellulose membranes were incubated overnight at 4° C. with rabbit anti-Patched antiserum (Ab130.6 1:1000 generous gift from M. Ruat or Ab39266 from Abcam 1/1000) and monoclonal mouse anti-βtubulin antibody (Sigma; 1/1000). After 3 washes, membranes were incubated 45 min with anti-mouse (1:5000) or anti-rabbit (1:3000) immunoglobulin coupled to horseradish peroxidase (Dako). Detection was carried out with an ECL kit (Millipore) on a Las3000 (Fuji).
Background: Immunoblotting shows a protein as a band on a membrane.

The next series relates to MeWo cells. Kind of series: Doxorubicin efflux from melanoma cells (intracellular dxr fluorescence). Format: cell-based, human. The conditions noted are these: loaded with 10 μM dxr, 10 μM compound, 30 min efflux. The procedure: (§1) A. Compound P5 inhibits doxorubicin efflux from melanoma cells MeWo and A375. Cells were grown on cover-slips, incubated for 2 hour at 37° C. with 10 μM doxorubicin and quickly rinsed with phosphate buffer (pH 7.4). One cover-slip of each cell line was immediately fixed for doxorubicin charge control. The other cover-slips were incubated with buffer supplemented with DMSO or 10 μM of compound P5 30 min under gentle shaking and immediately fixed. Dxr intracellular fluorescence was visualized by epifluorescence and analyzed using Image J software on more than 30 cells of 3 different fields for each condition. The results were analyzed using the Student t test in which significance is attained at P<0.05 (**: P<0.005, ***: P<0.0005). […] Dxr intracellular fluorescence quantification was carried out using Image J software on more than 30 yeasts on 3 different fields for each condition. The results were analyzed using the Student t test in which significance is attained at P<0.05 (*).
(§2) On melanoma cells: For doxorubicin incorporation in melanoma cells, the protocol was adapted from Bidet et al. (2012). […] Quantification of doxorubicin intracellular fluorescence was carried out using Image J software on more than 30 cells of 3 different fields for each condition. The results were analyzed using the Student t test in which significance is attained at P<0.05.

Another series deals with A375 cells. The series is described as above. Format: cell-based, human. Particulars: A375, loaded with 10 μM dxr, 10 μM compound, 30 min efflux. On the procedure:
as §1, §2

A further series concerns keratinocytes HaCaT. Briefly: Doxorubicin efflux from cells (intracellular dxr fluorescence). Format: cell-based.
The next series has as its system A375 melanoma cells. Briefly: Vemurafenib cytotoxicity, viability test using neutral red. In kind it is cell-based, human. The conditions noted are these: A375, 10 μM panicein A hydroquinone.
In the next series the test system is melanoma cells. Kind of series: Apoptosis by AnnexinV and DAPI co-staining. Format: cell-based, human. The procedure:
Cells were sampled after 24 h treatment with DMSO, paniceins and/or dxr, and apoptosis determined via AnnexinV and DAPI co-staining. Cells in early apoptosis are AnnexinV positive and DAPI negative, and cells in late apoptosis are AnnexinV and DAPI double positive. Histograms represent the mean percentage (+/−SEM) of cells in late apoptosis from three independent experiments and were analyzed using the Student t-test in which significance is attained at P<0.05 (*) (**: P<0.005).

The values that follow come from patent US10376476B2, “Panicein compounds, compositions and uses thereof” (CENTRE NATIONAL DE LA RECHERCHE SCIENTIFIQUE, priority 2014, dated 2019).

Turning to `COc1cc(C)c(CC/C(C)=C/Cc2cc(O)ccc2O)c(C)c1C` [P5, Panicein A hydroquinone], the “effect on Patched expression or degradation” value in series [1] is listed as “no effect”. Moreover, the figures for the “increase of dxr in cells (dxr fluorescence intensity) after efflux” value with MeWo cells, with A375 cells and with keratinocytes HaCaT were “about 25%”, “about 25%” and “contrary to “healthy” keratinocytes HaCaT”, respectively. Moreover, the “increase of vemurafenib cytotoxicity” value with A375 melanoma cells is reported as “strongly increases”. Moreover, in the series with melanoma cells (24 h treatment with paniceins and/or dxr), the “early apoptosis (Annexin V and DAPI labeling)” value is “increases early apoptosis”. Besides, in the series with melanoma cells (24 h treatment, AnnexinV and DAPI co-staining), the “number of apoptotic melanoma cells” value is “strongly increases”.
